In patent US9328099B2, “Cyanomethylpyrazole carboxamides as janus kinase inhibitors” (Merck Sharp & Dohme Corp., priority 2011, dated 2016):

target: JAK1 (Homo sapiens (Human), UniProt P23458); assay: Jak Biochemical HTRF Assay, JAK1; details: HTRF biochemical assay, GST-tagged catalytic domain; top concentration tested […]; read-out: JAK1 IC50
From the text: Jak Biochemical HTRF Assay Protocol
Subsequent reagent additions employed an Agilent Bravo.

Chain of JAK1 (P23458 875-1153): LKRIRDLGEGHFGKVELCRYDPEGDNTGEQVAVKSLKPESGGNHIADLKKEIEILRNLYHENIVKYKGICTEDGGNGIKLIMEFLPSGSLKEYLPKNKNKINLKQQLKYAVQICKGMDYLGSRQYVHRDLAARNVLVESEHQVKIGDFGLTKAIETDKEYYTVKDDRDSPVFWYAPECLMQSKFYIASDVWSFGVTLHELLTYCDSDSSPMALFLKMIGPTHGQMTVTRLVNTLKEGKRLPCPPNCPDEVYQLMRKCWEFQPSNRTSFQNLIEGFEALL

Row | Compound | IC50
1 | N#CCC1(n2cc(C(N)=O)c(Nc3ccccc3)n2)CN(C(=O)OCCc2cccc3ccccc23)C1 [Example 30-54, 2-naphthalen-1-ylethyl 3-[4-carbamoyl-3-(phenylamino)-1H-pyrazol-1-yl]-3-(cyanomethyl)azetidine-1-carboxylate] | 375 nM
2 | CC(C)(C)COC(=O)N1CC(CC#N)(n2cc(C(N)=O)c(Nc3ccccc3)n2)C1 [Example 30-56, 2,2-dimethylpropyl 3-[4-carbamoyl-3-(phenylamino)-1H-pyrazol-1-yl]-3-(cyanomethyl)azetidine-1-carboxylate] | 18 nM
3 | N#CCC1(n2cc(C(N)=O)c(Nc3ccccc3)n2)CN(C(=O)OCCc2ccccc2)C1 [Example 30-58, 2-phenylethyl 3-[4-carbamoyl-3-(phenylamino)-1H-pyrazol-1-yl]-3-(cyanomethyl)azetidine-1-carboxylate] | 76 nM
4 | N#CCC1(n2cc(C(N)=O)c(Nc3ccccc3)n2)CN(C(=O)OC2CCOCC2)C1 [Example 30-63, tetrahydro-2H-pyran-4-yl 3-[4-carbamoyl-3-(phenylamino)-1H-pyrazol-1-yl]-3-(cyanomethyl)azetidine-1-carboxylase] | 11 nM
5 | CN1CCN(CCOC(=O)N2CC(CC#N)(n3cc(C(N)=O)c(Nc4ccccc4)n3)C2)CC1 [Example 30-72, 2-(4-methylpiperazin-1-yl)ethyl 3-[4-carbamoyl-3-(phenylamino)-1H-pyrazol-1-yl]-3-(cyanomethyl)azetidine-1-carboxylate] | 72 nM
6 | CS(=O)(=O)c1ccc(Nc2nn(C3(CC#N)CN(C(=O)OC4CCCC4)C3)cc2C(N)=O)cc1 [Example 30-74, cyclopentyl 3-(4-carbamoyl-3-{[4-(methylsulfonyl)phenyl]amino}-1H-pyrazol-1-yl)-3-(cyanomethyl)azetidine-1-carboxylate] | 6 nM
7 | N#CCC1(n2cc(C(N)=O)c(Nc3ccccc3)n2)CCN(C(=O)c2ccccn2)CC1 [Example 34-9, 1-[4-(cyanomethyl)-1-(pyridin-2-ylcarbonyl)piperidin-4-yl]-3-(phenylamino)-1H-pyrazole-4-carboxamide] | 18 nM
8 | N#CCC1(n2cc(C(N)=O)c(Nc3ccccc3)n2)CCN(C(=O)c2cnccn2)CC1 [Example 34-11, 1-[4-(cyanomethyl)-1-(pyrazin-2-ylcarbonyl)piperidin-4-yl]-3-(phenylamino)-1H-pyrazole-4-carboxamide] | 12 nM
9 | N#CCC1(n2cc(C(N)=O)c(Nc3ccccc3)n2)CN(C(=O)c2ccccn2)C1 [Example 34-38, 1-[3-(cyanomethyl)-1-(pyridin-2-ylcarbonyl)azetidin-3-yl]-3-(phenylamino)-1H-pyrazole-4-carboxamide] | 59 nM
10 | N#CCC1(n2cc(C(N)=O)c(Nc3ccc(F)cc3)n2)CCN(C(=O)CC(F)(F)F)CC1 [Example 35-1, 1-(4-(Cyanomethyl)-1-(3,3,3-trifluoropropanoyl)piperidin-4-yl)-3-(4-fluorophenylamino)-1H-pyrazole-4-carboxamide] | 0.1 nM
11 | N#CCC1(n2cc(C(N)=O)c(Nc3ccccc3)n2)CCN(S(=O)(=O)c2ccc(C(F)(F)F)cc2)CC1 [Example 37-13, 1-[4-(cyanomethyl)-1-{[4-(trifluoromethyl)phenyl]sulfonyl}piperidin-4-yl]-3-(phenylamino)-1H-pyrazole-4-carboxamide] | 3 nM

Second part, the molecule after the results:

Row | IC50 | Compound
12 | 38 nM | CCOC(=O)C(C)NC(=O)N1CC(CC#N)(n2cc(C(N)=O)c(Nc3ccccc3)n2)C1 (centres unmarked) [Example 38-9, ethyl N-({3-[4-carbamoyl-3-(phenylamino)-1H-pyrazol-1-yl]-3-(cyanomethyl)azetidin-1-yl}carbonyl)alaninate]
13 | 2 nM | CCc1ccc(NC(=O)N2CC(CC#N)(n3cc(C(N)=O)c(Nc4ccccc4)n3)C2)cc1 [Example 38-34, 1-{3-(cyanomethyl)-1-[(4-ethylphenyl)carbamoyl]azetidin-3-yl}-3-(phenylamino)-1H-pyrazole-4-carboxamide]
14 | 13 nM | Cc1ccc(F)cc1NC(=O)N1CC(CC#N)(n2cc(C(N)=O)c(Nc3ccccc3)n2)C1 [Example 38-38, 1-{3-(cyanomethyl)-1-[(5-fluoro-2-methylphenyl)carbamoyl]azetidin-3-yl}-3-(phenylamino)-1H-pyrazole-4-carboxamide]
15 | 0.2 nM | N#CCC1(n2cc(C(N)=O)c(Nc3ccccc3)n2)CCN(C(=O)Nc2ccc(C#N)cc2)CC1 [Example 38-47, 4-[4-carbamoyl-3-(phenylamino)-1H-pyrazol-1-yl]-4-(cyanomethyl)-N-(4-cyanophenyl)piperidine-1-carboxamide]
16 | 0.1 nM | N#CCC1(n2cc(C(N)=O)c(Nc3ccc(C(F)(F)F)cc3)n2)CCC(N2CC(F)C2)CC1 (centres unmarked) [Example 39-2, 1-[1-(cyanomethyl)-4-(3-fluoroazetidin-1-yl)cyclohexyl]-3-{[4-(trifluoromethyl)phenyl]amino}-1H-pyrazole-4-carboxamide]
17 | 102 nM | N#CCC1(n2cc(C(N)=O)c(Nc3ccnc(F)c3)n2)CCC(Nc2ccccn2)CC1 (stereo not drawn) [Example 40-4, Cis or trans 1-[1-(cyanomethyl)-4-(pyridin-2-ylamino)cyclohexyl]-3-[(2-fluoropyridin-4-yl)amino]-1H-pyrazole-4-carboxamide]
18 | 115 nM | N#CCC1(n2cc(C(N)=O)c(Nc3ccnc(F)c3)n2)CCC(N2CCC(O)CC2)CC1 (stereo not drawn) [Example 40-13, Cis or trans 1-[1-(cyanomethyl)-4-(4-hydroxypiperidin-1-yl)cyclohexyl]-3-[(2-fluoropyridin-4-yl)amino]-1H-pyrazole-4-carboxamide]
19 | 0.04 nM | N#CCC1(n2cc(C(N)=O)c(Nc3ccnc(F)c3)n2)CCC(Nc2ccccc2F)CC1 (stereo not drawn) [Example 40-17, Cis or trans 1-{1-(cyanomethyl)-4-[(2-fluorophenyl)amino]cyclohexyl}-3-[(2-fluoropyridin-4-yl)amino]-1H-pyrazole-4-carboxamide]
20 | 4 nM | N#CCC1(n2cc(C(N)=O)c(Nc3ccnc(F)c3)n2)CCC(Nc2ccccn2)CC1 (stereo not drawn) [Example 40-22, Cis or trans 1-[1-(cyanomethyl)-4-(pyridin-2-ylamino)cyclohexyl]-3-[(2-fluoropyridin-4-yl)amino]-1H-pyrazole-4-carboxamide]
21 | 8 nM | N#CCC1(n2cc(C(N)=O)c(Nc3ccnc(F)c3)n2)CCC(Nc2ccccc2F)CC1 (stereo not drawn) [Example 40-24, Cis or trans 1-{1-(cyanomethyl)-4-[(2-fluorophenyl)amino]cyclohexyl}-3-[(2-fluoropyridin-4-yl)amino]-1H-pyrazole-4-carboxamide]
22 | 0.8 nM | N#CCC1(n2cc(C(N)=O)c(Nc3ccc(F)cc3)n2)CCC(Nc2ccc(F)c(F)c2)CC1 (stereo not drawn) [Example 40-35, Cis or trans 1-{1-(cyanomethyl)-4-[(3,4-difluorophenyl)amino]cyclohexyl}-3-[(4-fluorophenyl)amino]-1H-pyrazole-4-carboxamide]
23 | 0.1 nM | N#CCC1(n2cc(C(N)=O)c(Nc3ccc(F)cc3)n2)CCC(Nc2cc(F)ccc2F)CC1 (stereo not drawn) [Example 40-50, Cis and trans 1-{1-(cyanomethyl)-4-[(2,5-difluorophenyl)amino]cyclohexyl}-3-[(4-fluorophenyl)amino]-1H-pyrazole-4-carboxamide]
24 | 69 nM | N#CCC1(n2cc(C(N)=O)c(Nc3ccc(F)cc3)n2)CCC(NCCO)CC1 (stereo not drawn) [Example 40-68, Cis or trans 1-{1-(cyanomethyl)-4-[(2-hydroxyethyl)amino]cyclohexyl}-3-[(4-fluorophenyl)amino]-1H-pyrazole-4-carboxamide]
25 | 12 nM | CNC1CCC(CC#N)(n2cc(C(N)=O)c(Nc3ccc(F)cc3)n2)CC1 (stereo not drawn) [Example 40-78, Cis or trans 1-[1-(cyanomethyl)-4-(methylamino)cyclohexyl]-3-[(4-fluorophenyl)amino]-1H-pyrazole-4-carboxamide]
26 | 0.06 nM | N#CCC1(n2cc(C(N)=O)c(Nc3ccnc(F)c3)n2)CCC(Nc2ccccc2)CC1 (stereo not drawn) [Example 40-86, Cis or trans 1-[1-(cyanomethyl)-4-(phenylamino)cyclohexyl]-3-[(2-fluoropyridin-4-yl)amino]-1H-pyrazole-4-carboxamide]
27 | 67 nM | N#CCC1(n2cc(C(N)=O)c(Nc3ccc(S(=O)(=O)C(F)F)cc3)n2)CCC(N2CC(F)C2)CC1 (stereo not drawn) [Example 40-91, Cis or trans 1-[1-(cyanomethyl)-4-(3-fluoroazetidin-1-yl)cyclohexyl]-3-({4-[(difluoromethyl)sulfonyl]phenyl}amino)-1H-pyrazole-4-carboxamide]
28 | 25 nM | N#CCC1(n2cc(C(N)=O)c(Nc3ccc(F)cc3)n2)CCC(NCc2ccc(C#N)cc2)CC1 (stereo not drawn) [Example 40-97, Cis or trans 1-{4-[(4-cyanobenzyl)amino]-1-(cyanomethyl)cyclohexyl}-3-[(4-fluorophenyl)amino]-1H-pyrazole-4-carboxamide]
29 | 1 nM | N#CCC1(n2cc(C(N)=O)c(Nc3ccc(F)cc3)n2)CCC(NCC(F)(F)F)CC1 (stereo not drawn) [Example 40-98, Cis or trans 1-{1-(cyanomethyl)-4-[(2,2,2-trifluoroethyl)amino]cyclohexyl}-3-[(4-fluorophenyl)amino]-1H-pyrazole-4-carboxamide]
30 | 18 nM | N#CCC1(n2cc(C(N)=O)c(Nc3ccc(F)cc3)n2)CCC(NCC(F)(F)F)CC1 (stereo not drawn) [Example 40-101, Cis or trans 1-{1-(cyanomethyl)-4-[(2,2,2-trifluoroethyl)amino]cyclohexyl}-3-[(4-fluorophenyl)amino]-1H-pyrazole-4-carboxamide]

same assay, conditions: read-out: JAK1 IC50

Row | Compound | IC50
31 | N#CCC1(n2cc(C(N)=O)c(Nc3ccc(S(=O)(=O)C(F)F)cc3)n2)CCC(Nc2cccnc2)CC1 (stereo not drawn) [Example 40-8, Cis or trans 1-[1-(cyanomethyl)-4-(pyridin-3-ylamino)cyclohexyl]-3-({4-[(difluoromethyl)sulfonyl]phenyl}amino)-1H-pyrazole-4-carboxamide] | 0.3 nM
32 | N#CCC1(n2cc(C(N)=O)c(Nc3ccc(S(=O)(=O)C(F)F)cc3)n2)CCC(Nc2ccccc2O)CC1 (stereo not drawn) [Example 40-48, Cis or trans 1-{1-(cyanomethyl)-4-[(2-hydroxyphenyl)amino]cyclohexyl}-3-({4-[(difluoromethyl)sulfonyl]phenyl}amino)-1H-pyrazole-4-carboxamide] | 0.4 nM
